Test results as given in US6806359B1, “Hormone receptor compositions and methods” (The Salk Institute for Biological Studies, priority 1986, dated 2004).
Entries after “also recorded” stand apart in the source; their conditions may differ.

How the values were obtained:
[1] = target: T1, rTR alpha (Rattus norvegicus, UniProt P63059); experiment: ^125I-T3 binding to in vitro translated rTR alpha (Scatchard and competition); conditions: for competition for T3 binding to rTR alpha by excess compound: excess competitor
T1 construct: made in house; host or cells: rabbit reticulocyte lysate (SP6 transcripts of rbeA12B)
T1 sequence (P63059 1-410 isoform P63059-2): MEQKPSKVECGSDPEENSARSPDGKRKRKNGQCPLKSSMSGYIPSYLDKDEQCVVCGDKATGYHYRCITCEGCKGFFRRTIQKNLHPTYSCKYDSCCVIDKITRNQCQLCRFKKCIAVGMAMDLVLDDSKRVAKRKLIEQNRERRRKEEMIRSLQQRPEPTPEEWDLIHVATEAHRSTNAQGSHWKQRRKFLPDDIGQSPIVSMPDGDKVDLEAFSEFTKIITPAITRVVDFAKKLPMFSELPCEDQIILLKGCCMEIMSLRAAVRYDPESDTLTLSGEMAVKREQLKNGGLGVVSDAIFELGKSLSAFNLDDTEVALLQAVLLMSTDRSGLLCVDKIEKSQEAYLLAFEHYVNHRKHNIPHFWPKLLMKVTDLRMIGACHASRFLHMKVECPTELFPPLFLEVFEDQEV
From the text: In vitro translation and thyroid hormone binding of rTR alpha FIG. 69 rTR alpha was transcribed in vitro and translated in a rabbit reticulocyte lysate. […] Lane 1, no added RNA; lane 2, rbeA12, which contains the entire 5′ untranslated region; lane 3, rbeA12B, which contains only 97 bp of 5′ untranslated sequence. […] Samples from rbeA12B programmed lysates were mixed with increasing concentrations of unlabeled thyroid hormone or analogs to compete with labeled hormone. […] In vitro transcription and translation and hormone binding were performed as described (22, 23).
23. For in vitro transcription, the entire EcoRI insert of rbeA12 was cloned into pGEM1 (Promega Biotec). […] For thyroid hormone binding, transcriptions were performed with SP6 polymerase and 5 to 10 micrograms of rbeA12B linearized with SstI. […] Thyroid hormone binding for both the Scatchard and competition analyses were determined in the same manner, except that unlabeled protein was used for the Scatchard analysis. […] Specific hormone binding was determined by adding a 1000-fold excess of unlabeled hormone and assayed by counting radioactivity eluting in the excluded volume from a Sephadex G-25 fine (Pharmacia) 0.9-by 4.0-cm. column.

[2] = target: T2, hMR (Homo sapiens, UniProt P08235); experiment: [^3H]aldosterone binding and steroid competition in extracts of pRShMR-transfected COS cells; set-up: expressed in transfected cells; host or cells: COS cells transfected with pRShMR (DEAE-dextran); conditions: 1-, 10-, or 100-fold molar excess of unlabeled steroid
T2 sequence (P08235 1-984): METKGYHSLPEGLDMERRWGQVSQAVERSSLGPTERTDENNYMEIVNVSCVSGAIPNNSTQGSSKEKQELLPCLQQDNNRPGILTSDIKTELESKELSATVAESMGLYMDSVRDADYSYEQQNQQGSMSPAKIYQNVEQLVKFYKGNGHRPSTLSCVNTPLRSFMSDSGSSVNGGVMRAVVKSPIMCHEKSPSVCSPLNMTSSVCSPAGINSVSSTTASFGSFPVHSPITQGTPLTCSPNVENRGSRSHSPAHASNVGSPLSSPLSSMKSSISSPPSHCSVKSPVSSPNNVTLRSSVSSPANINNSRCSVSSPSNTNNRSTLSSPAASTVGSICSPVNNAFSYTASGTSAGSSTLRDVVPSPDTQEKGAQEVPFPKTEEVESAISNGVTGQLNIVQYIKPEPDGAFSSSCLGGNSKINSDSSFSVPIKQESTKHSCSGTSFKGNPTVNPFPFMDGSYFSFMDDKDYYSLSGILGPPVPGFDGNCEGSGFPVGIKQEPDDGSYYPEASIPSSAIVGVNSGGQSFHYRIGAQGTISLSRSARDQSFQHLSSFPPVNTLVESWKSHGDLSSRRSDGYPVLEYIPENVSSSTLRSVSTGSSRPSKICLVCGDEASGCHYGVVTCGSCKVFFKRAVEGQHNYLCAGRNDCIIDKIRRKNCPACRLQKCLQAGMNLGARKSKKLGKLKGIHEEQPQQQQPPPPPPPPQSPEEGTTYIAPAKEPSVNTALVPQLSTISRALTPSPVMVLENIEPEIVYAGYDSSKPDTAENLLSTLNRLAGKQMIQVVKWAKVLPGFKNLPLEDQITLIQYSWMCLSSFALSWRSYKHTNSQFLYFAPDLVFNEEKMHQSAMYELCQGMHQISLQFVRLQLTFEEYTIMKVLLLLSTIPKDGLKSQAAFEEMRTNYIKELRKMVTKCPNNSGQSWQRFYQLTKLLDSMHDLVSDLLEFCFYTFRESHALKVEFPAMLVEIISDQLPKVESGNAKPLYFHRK
Protocol: Ligand specificity of the hMR protein was determined by preparing cytosol extracts from COS cells transfected with pRShMR. Two days after transfection, cells were harvested, and hormone binding was measured by a dextran-treated charcoal assay. […] This provided a measure of the relative affinity of each of these steroids for hMR.
Steroid-binding properties of expressed hMR. FIG. 38 Structure of pRShMR, the hMR expression plasmid (41). […] Each point was assayed in triplicate with 100 micrograms of extract protein in a 200-microliter incubation at 0° C. for 2.5 hours. […] The results of two independent trials representative of these competition experiments are shown. Cold competitor was present in 1-, 10-, or 100-fold molar excess. […] Subconfluent COS cells were transfected by the DEAE-dextran method (42) with 10 micrograms of pRShMR per dish. Cells were maintained for 2 days in DMEM (Dulbecco's modification of Eagle's minimum essential medium) with 5 percent charcoal-treated fetal calf serum, then harvested in […] tris-HCl. (pH 7.8), 10 nM NaCl, 1 mM EDTA, 10 mM Na2MoO4, 5 mM dithiothreitol, antipain (5 microgram/ml), leupeptin (5 microgram/ml), and 500 microM phenylmethylsulfonyl fluoride. After centrifugation at 15,000×g for 10 minutes, extracts were adjusted to 100 mM NaCl and 5 percent glycerol before binding. […] After centrifugation at 15,000×g for 2 minutes at 40C, tritium in supernatant was quantified by liquid scintillation spectrophotometry.

[3] = target: T3, GR (Homo sapiens, UniProt P04150); experiment: hGR functional assay: CAT activity in CV-1 cells cotransfected with pRShGR alpha (or mutant) and pMTVCAT; format: cell-based; set-up: The expression vector linking the RSV LTR to full length hGR cDNA (pRShGR alpha) was designed to obtain high levels of expression; expressed in transfected cells; host or cells: CV-1 monkey kidney cells, cotransfected with pMTVCAT; conditions: 100 nM steroid, cotransfected CV-1 cells
T3 sequence (P04150 1-777): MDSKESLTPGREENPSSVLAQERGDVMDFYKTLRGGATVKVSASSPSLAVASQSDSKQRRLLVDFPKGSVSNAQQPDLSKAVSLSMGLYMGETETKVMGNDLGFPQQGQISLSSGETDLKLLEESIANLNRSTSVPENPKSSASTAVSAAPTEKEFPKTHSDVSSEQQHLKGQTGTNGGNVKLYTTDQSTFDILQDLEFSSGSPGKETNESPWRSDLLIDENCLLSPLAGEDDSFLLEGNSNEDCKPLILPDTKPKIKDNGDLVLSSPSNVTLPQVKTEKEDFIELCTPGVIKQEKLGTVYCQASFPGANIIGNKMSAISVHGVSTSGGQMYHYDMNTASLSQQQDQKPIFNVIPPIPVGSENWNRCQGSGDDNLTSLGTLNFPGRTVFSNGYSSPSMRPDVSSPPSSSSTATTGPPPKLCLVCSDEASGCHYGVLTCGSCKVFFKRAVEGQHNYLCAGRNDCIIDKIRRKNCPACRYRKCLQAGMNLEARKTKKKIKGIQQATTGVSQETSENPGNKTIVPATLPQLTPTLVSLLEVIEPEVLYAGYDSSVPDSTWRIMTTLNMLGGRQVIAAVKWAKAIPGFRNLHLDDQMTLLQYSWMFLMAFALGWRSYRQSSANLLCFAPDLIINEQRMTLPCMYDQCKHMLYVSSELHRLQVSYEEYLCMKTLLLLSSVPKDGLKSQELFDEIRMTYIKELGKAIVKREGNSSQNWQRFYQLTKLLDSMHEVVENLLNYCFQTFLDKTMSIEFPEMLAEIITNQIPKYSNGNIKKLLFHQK
From the text: The assay system and strategy used to study the expression of functional hGR from the cloned cDNA (See Experimental Section I) is shown in FIG. 11. In these experiments, a glucocorticoid-responsive promoter/enhancer element linked to a reporter gene was introduced into a receptor-negative cell. […] For our assay, we chose to use the MTV LTR fused to the sequence coding for chloramphenicol acetyltransferase (CAT) (EC2.3.1.28). […] Cotransfection of pMTVCAT (or pGMCAT) with a receptor expression plasmid provides functional receptors that allow induction of CAT activity upon treatment of the transfected cells with glucocorticoid hormone. In addition, biochemical studies such as steroid binding activity and Western blot analysis of the expressed receptors can be performed simultaneously.
The cells are then cultured in the presence or absence of hormone. CV-1 cells were used to monitor induction of CAT activity, and COS cells were used to measure steroid-binding capacity and the expression of hGR protein.
CAT assays were performed as indicated in Experimental Procedures (See Section II. F.). C, chloramphenicol; AC, 3-acetylchloramphenicol.
The levels of CAT activity were plotted as percentages of the maximal response observe in a particular experiment.
Each plasmid preparation used for transfection was purified using two consecutive CsCl-EtBr equilibrium gradients. […]

For `N[C@@H](Cc1cc(I)c(Oc2cc(I)c(O)c(I)c2)c(I)c1)C(=O)O` [L-thyroxine], the “competition for ^125I-T3 binding to rTR alpha (in words)” value ([1]; in vitro translated rTR alpha) was “same characteristic affinities”.
For `C[C@]12C[C@H](O)[C@H]3[C@@H](CCC4=CC(=O)CC[C@@]43C)[C@@H]1CC[C@@H]2C(=O)CO` [corticosterone], the “relative affinity for hMR by competition with 5 nM [^3H]aldosterone (in words)” value (“relative affinity for hMR by competition” below) [2] was “very similar affinities; also recorded: compete as effectively as aldosterone itself”.
`C[C@]12CC[C@H]3[C@@H](CCC4=CC(=O)CC[C@@]43C)[C@@H]1CC[C@@H]2C(=O)CO` [deoxycorticosterone] was tested, and the “relative affinity for hMR by competition” value [2] was “very similar affinities; also recorded: compete as effectively as aldosterone itself”.
For `CC(=O)[C@H]1CC[C@H]2[C@@H]3CCC4=CC(=O)CC[C@]4(C)[C@H]3CC[C@]12C` [progesterone], the “competition for T3 binding to rTR alpha by excess compound” value (“competition for T3 binding to rTR alpha” below) [1] was “no competition”.
In the case of `CC(=O)S[C@@H]1CC2=CC(=O)CC[C@]2(C)[C@H]2CC[C@@]3(C)[C@@H](CC[C@@]34CCC(=O)O4)[C@H]12` [spironolactone], the “relative affinity for hMR by competition” value [2] is reported as “weaker binding affinity”.
For `C[C@]12CC[C@H]3[C@@H](CCC4=CC(=O)CC[C@@]43C)[C@@H]1CC[C@@H]2O` [testosterone], the “induction of CAT activity by steroid” value [3] was “failed to induce CAT activity” and the “competition for T3 binding to rTR alpha” value [1] was “no competition”.
With `C=C1CC[C@H](O)C/C1=C/C=C1\CCC[C@]2(C)[C@@H]([C@H](C)CCCC(C)C)CC[C@@H]12` [vitamin D3] the “competition for T3 binding to rTR alpha” value [1] was “no competition”.
